One series deals with cells. As to conditions: highest tested concentration 100 μM.
Another series deals with HIV-1. Conditions: read-out: IC50, inhibition of HIV-1 entry (attachment assay); compounds pre-equilibrated with the cells rather than with the virus; value represents lower boundary of actual activity. An excerpt: An attachment assay, described by Lackman-Smith et al., 2008, was used.

Where “and” joins values, the source holds several entries; their conditions need not be identical. Identical values can stand only once. Non-standard residues stand in square brackets, D forms with d. Residues, ends and D or L forms follow the SMILES beside them. dBip = N[C@H](Cc1ccc(-c2ccccc2)cc1)C(=O)O Some results are limits rather than exact numbers.

In general, IC50 refers to the concentration that inhibits the measured activity by half. On to `CC[C@H](C)[C@@H]1NC(=O)[C@H](CC(=O)O)NC(=O)[C@H](Cc2ccccc2)NC(=O)[C@H](CC(=O)O)NC(=O)[C@@H](CC(=O)O)NC(=O)[C@@H](Cc2ccc(-c3ccccc3)cc2)NC(=O)[C@H]2CCCN2C(=O)CNC(=O)[C@@H](CCC(=O)O)NC(=O)[C@@H](Cc2ccc(O)cc2)NC(=O)[C@H](CCCCN)NC(=O)[C@@H](CC(C)C)NC(=O)[C@@H](CC(=O)O)NC(=O)[C@H]([C@@H](C)CC)NC1=O` [2-s4-98rp-39m-60-1_MC] (cyclo(DFDII[dD][dL]K[dY][dE]G[dP][dBip][dD])), for which, in the series with cells, the “cytotoxicity (none observed up to the highest tested concentration)” value is over 100 µM. Besides, the IC50 in the series with HIV-1 was ≤ 1.64 µM and 1.64 µM.

The values are drawn from patent US8361969B2, “Designer cyclic peptides—HIV gp120 antagonists and their applications” (priority 2011, dated 2013).
